Earlier results, collected in patent US20240189327A1, “SYNERGISTIC CANNABINOID ESTERS, THEIR SALTS AND USES THEREOF” (LONDON PHARMACEUTICALS AND RESEARCH CORPORATION, priority 2021, published 2024).

What was measured:
[1] = in vivo
[2] = pH 7.4
[3] = test system: intraocular pressure; settings: normotensive rabbit

SMILES | time to maximum plasma level [1] | increase of aqueous solubility over the parent endocannabinoids [2] | effect on intraocular pressure [3]
N[C@H]1C(O)O[C@H](CO)[C@@H](O)[C@@H]1O (stereo partly shown) [glucosamine] | 50 min |  | 
C=C(C)[C@@H]1CCC(C)=C[C@H]1c1c(O)cc(CCCCC)cc1O [CBD, cannabidiol] | 240 to 360 min |  | 
CCCCC/C=C\C/C=C\C/C=C\C/C=C\CCCC(=O)NCCOP(=O)(O)O [phosphate ester pro-drug of anandamide] |  | > 16 500 fold | reduced the intraocular pressure
